Assay results: patent US8211662B2, “Nitroreductase enzymatic substrates” (Biomerieux, priority 2007, dated 2012)

Columns and labels:
Assay in all cases: Nitroreductase detection on Columbia agar, colonies read under UV
[1] = test system: Bacillus subtilis NCTC 9372; type: cell-based; design: key: − = no fluorescence detected; +/− = weak fluorescence; + = medium fluorescence; ++ = strong fluorescence; conditions: Table 3; 100 mg/l in Columbia agar, 24 h 37° C., UV 360-365 nm
Experimental: (§1) A mass of 40 mg of each substrate was dissolved in 4 ml of dimethylformamide (DMF). This solution was entirely taken up in 400 ml of Columbia agar autoclaved beforehand and kept molten at 50° C. The final concentration for each substrate was 100 mg/l.
(§2) Each of the media was distributed into Petri dishes 90 mm in diameter, in a proportion of 20 ml per dish.
(§3) 18 microorganism strains derived from collections and belonging to various species of bacteria and of yeasts were inoculated onto these media by semi-quantitative isolation of 10 μl of a suspension at 0.5 McFarland diluted to 1/20. The media were incubated for 24 hours at 37° C., then the colonies formed were examined visually under UV illumination at 360-365 nm.

[2] = test system: Burkholderia cepacia 1222; type: cell-based; design: key: − = no fluorescence detected; +/− = weak fluorescence; + = medium fluorescence; ++ = strong fluorescence; conditions: Table 3; 100 mg/l in Columbia agar, 24 h 37° C., UV 360-365 nm
Experimental: as §1, §2, §3

[3] = test system: Candida albicans ATCC 90028; type: cell-based; design: key: − = no fluorescence detected; +/− = weak fluorescence; + = medium fluorescence; ++ = strong fluorescence; conditions: Table 3; 100 mg/l in Columbia agar, 24 h 37° C., UV 360-365 nm
Experimental: as §1, §2, §3

[4] = test system: Citrobacter freundii 46262 (wild); type: cell-based; design: key: − = no fluorescence detected; +/− = weak fluorescence; + = medium fluorescence; ++ = strong fluorescence; conditions: Table 3; 100 mg/l in Columbia agar, 24 h 37° C., UV 360-365 nm
Experimental: as §1, §2, §3

[5] = test system: Enterobacter cloacae NCTC 11936; type: cell-based; design: key: − = no fluorescence detected; +/− = weak fluorescence; + = medium fluorescence; ++ = strong fluorescence; conditions: Table 3; 100 mg/l in Columbia agar, 24 h 37° C., UV 360-365 nm
Experimental: as §1, §2, §3

[6] = test system: Enterococcus faecalis NCTC 775; type: cell-based; design: key: − = no fluorescence detected; +/− = weak fluorescence; + = medium fluorescence; ++ = strong fluorescence; conditions: Table 3; 100 mg/l in Columbia agar, 24 h 37° C., UV 360-365 nm
Experimental: as §1, §2, §3

[7] = test system: Enterococcus faecium NCTC 7171; type: cell-based; design: key: − = no fluorescence detected; +/− = weak fluorescence; + = medium fluorescence; ++ = strong fluorescence; conditions: Table 3; 100 mg/l in Columbia agar, 24 h 37° C., UV 360-365 nm
Experimental: as §1, §2, §3

[8] = test system: Escherichia coli NCTC 10418; type: cell-based; design: key: − = no fluorescence detected; +/− = weak fluorescence; + = medium fluorescence; ++ = strong fluorescence; conditions: Table 3; 100 mg/l in Columbia agar, 24 h 37° C., UV 360-365 nm
Experimental: as §1, §2, §3

[9] = test system: Listeria monocytogenes NCTC 11994; type: cell-based; design: key: − = no fluorescence detected; +/− = weak fluorescence; + = medium fluorescence; ++ = strong fluorescence; conditions: Table 3; 100 mg/l in Columbia agar, 24 h 37° C., UV 360-365 nm
Experimental: as §1, §2, §3

[10] = test system: Providencia rettgeri NCTC 7475; type: cell-based; design: key: − = no fluorescence detected; +/− = weak fluorescence; + = medium fluorescence; ++ = strong fluorescence; conditions: Table 3; 100 mg/l in Columbia agar, 24 h 37° C., UV 360-365 nm
Experimental: as §1, §2, §3

[11] = test system: Pseudomonas aeruginosa NCTC 10662; type: cell-based; design: key: − = no fluorescence detected; +/− = weak fluorescence; + = medium fluorescence; ++ = strong fluorescence; conditions: Table 3; 100 mg/l in Columbia agar, 24 h 37° C., UV 360-365 nm
Experimental: as §1, §2, §3

[12] = test system: Serratia marcescens NCTC 10211; type: cell-based; design: key: − = no fluorescence detected; +/− = weak fluorescence; + = medium fluorescence; ++ = strong fluorescence; conditions: Table 3; 100 mg/l in Columbia agar, 24 h 37° C., UV 360-365 nm
Experimental: as §1, §2, §3

[13] = test system: Staphylococcus aureus NCTC 6571; type: cell-based; design: key: − = no fluorescence detected; +/− = weak fluorescence; + = medium fluorescence; ++ = strong fluorescence; conditions: Table 3; 100 mg/l in Columbia agar, 24 h 37° C., UV 360-365 nm
Experimental: as §1, §2, §3

[14] = test system: Staphylococcus epidermidis NCTC 11047; type: cell-based; design: key: − = no fluorescence detected; +/− = weak fluorescence; + = medium fluorescence; ++ = strong fluorescence; conditions: Table 3; 100 mg/l in Columbia agar, 24 h 37° C., UV 360-365 nm
Experimental: as §1, §2, §3

[15] = test system: Streptococcus pyogenes NCTC 8306; type: cell-based; design: key: − = no fluorescence detected; +/− = weak fluorescence; + = medium fluorescence; ++ = strong fluorescence; conditions: Table 3; 100 mg/l in Columbia agar, 24 h 37° C., UV 360-365 nm
Experimental: as §1, §2, §3

[16] = test system: Yersinia enterocolitica NCTC 11176; type: cell-based; design: key: − = no fluorescence detected; +/− = weak fluorescence; + = medium fluorescence; ++ = strong fluorescence; conditions: Table 3; 100 mg/l in Columbia agar, 24 h 37° C., UV 360-365 nm
Experimental: as §1, §2, §3

[17] = test system: Salmonella typhimurium NCTC 74; type: cell-based; design: key to Intensity of fluorescence, Salmonella typhimurium NCTC 74 / F: fluorescence (intensity), Salmonella typhimurium NCTC 74 / Intensity of the fluorescence, Salmonella typhimurium NCTC 74: − = no fluorescence detected; +/− = weak fluorescence; + = medium fluorescence; ++ = strong fluorescence; conditions: Table 3; 100 mg/l in Columbia agar, 24 h 37° C., UV 360-365 nm
Experimental: as §1, §2, §3

[18] = test system: Morganella morganii 462403 (wild); type: cell-based; design: key to Intensity of fluorescence, Morganella morganii 462403 / F: fluorescence (intensity), Morganella morganii 462403 (wild) / Intensity of the fluorescence, Morganella morganii 462403 (wild): − = no fluorescence detected; +/− = weak fluorescence; + = medium fluorescence; ++ = strong fluorescence; conditions: Table 3; 100 mg/l in Columbia agar, 24 h 37° C., UV 360-365 nm
Experimental: as §1, §2, §3

MRSA NCTC 11939 = type: cell-based, Staphylococcus aureus; design: key: − = no fluorescence detected; +/− = weak fluorescence; + = medium fluorescence; ++ = strong fluorescence; conditions: Table 3; 100 mg/l in Columbia agar, 24 h 37° C., UV 360-365 nm
Experimental: as §1, §2, §3

[19] = test system: Candida glabrata NCPF 3943; type: cell-based; design: key to Intensity of fluorescence, Candida glabrata NCPF3943 / F: fluorescence (intensity), Candida glabrata NCPF 3943 / Intensity of the fluorescence, Candida glabrata NCPF 3943: − = no fluorescence detected; +/− = weak fluorescence; + = medium fluorescence; ++ = strong fluorescence; conditions: 100 mg/l in Columbia agar, 24 h 37° C.
Experimental: as §1, §2, §3

## O=[N+]([O-])c1ccccc1-c1nc2ccccc2o1 [Substrate 1]
[1]
  F: fluorescence (intensity), Bacillus subtilis NCTC 9372: −
[2]
  F: fluorescence (intensity), Burkholderia cepacia 1222: ++
[3]
  F: fluorescence (intensity), Candida albicans ATCC 90028: −
[4]
  F: fluorescence (intensity), Citrobacter freundii 46262 (wild): ++
[5]
  F: fluorescence (intensity), Enterobacter cloacae NCTC 11936: ++
[6]
  F: fluorescence (intensity), Enterococcus faecails NCTC 775: ++
[7]
  F: fluorescence (intensity), Enterococcus faecium NCTC 7171: +
[8]
  F: fluorescence (intensity), Escherichia coli NCTC 10418: ++
[9]
  F: fluorescence (intensity), Listeria monocyto genes NCTC 11994: ++
[10]
  F: fluorescence (intensity), Providencia rettgeri NCTC 7475: ++
[11]
  F: fluorescence (intensity), Pseudomonas aeruginosa NCTC 10662: ++
[12]
  F: fluorescence (intensity), Serratia marcescens NCTC 10211: ++
[13]
  F: fluorescence (intensity), Staphylococcus aureus NCTC 6571: ++
[14]
  F: fluorescence (intensity), Staphylococcus epidermidis NCTC 11047: +
[15]
  F: fluorescence (intensity), Streptococcus pyogenes NCTC 8306: +
[16]
  F: fluorescence (intensity), Yersinia enterocolitica NCTC 11176: ++
[17]
  F: fluorescence (intensity), Salmonella typhimurium NCTC 74: ++
[18]
  F: fluorescence (intensity), Morganella morganii 462403 (wild): ++
MRSA NCTC 11939
  F: fluorescence (intensity), MRSA NCTC 11939: ++
[19]
  G: growth, Candida glabrata NCPF 3943: No G
[19]; Table 3, UV 360-365 nm
  F: fluorescence (intensity), Candida glabrata NCPF 3943: −
